Assay results taken from patent publication US20130178463A1, “ENHANCED TRANSBUCCAL DRUG DELIVERY SYSTEM AND COMPOSITIONS” (Rutgers, The State University of New Jersey, priority 2010, published 2013).
Structures can show the parent of a compound that is named as a salt. Marks after values point to notes of the source that are not given here.

Key:
[1] = In vitro transdermal permeation of LHCl, NHT and DHCl gels (Franz diffusion cells); conditions: for enhancement effect on transdermal delivery of DHCl / enhancement effect on transdermal delivery of LHCl / enhancement effect on transdermal delivery of NHT: in words, 1 hr. enhancer pretreatment, compared to control; for Flux / Q8: Transdermal
[2] = in words; drug description; cited from earlier work
[3] = In vitro transbuccal permeation of LHCl, NHT and DHCl gels (Franz diffusion cells); conditions: for Q8 / Flux: Transbuccal
Method: Buccal mucosa samples were harvested from pig's cheek area and placed below −30° C. The tissue samples were defrosted at room temperature first before use. Then a scalpel blade and a surgical scissor were used to remove the underlying connective tissue and trim the buccal mucosa to about 300 to 400 μm in thickness. Before each evaluation the buccal tissues were submerged in PBS (pH 7.5) for 1 hour.
Iontophoresis was terminated after 8 hour application.

[4] = Physicochemical properties stated in the description; conditions: in words; reason for preparing solutions in PG only
[5] = In vitro transbuccal permeation of 0.5% ODAN.HCl gel with iontophoresis and/or chemical enhancers (Franz diffusion cells)
Method: Buccal mucosa samples with underlying connective tissue were surgically removed from the pig check area and stored under −30° C. for future use. Prior to use, the samples were thawed at room temperature for at least 3 hours. Then the underlying connective tissue was removed using a scalpel blade and the remaining buccal mucosa was then carefully trimmed using surgical scissors to a thickness of about 300-400 μm. The buccal tissues were placed in phosphate buffered saline (PBS) with pH 7.5 for 1 hour prior to use.
Franz diffusion cells (PermeGear, Hellertown, Pa.) were used for all in vitro permeation studies using buccal tissue under varying conditions: passive (control); 1 hour enhancer pretreatment, 8 hours iontophoresis (0.1, 0.2 and 0.3 mA); and combined treatment of 1 hour enhancer treatment and 8 hours iontophoresis at 0.3 mA, and then passive only up to 24 hrs. All permeation studies were performed at 37° C.
For passive permeation studies, the Franz cell receptor compartment was filled with PBS solution and stirred at 600 rpm. […] At different time points (0.0, 0.5, 1. 3, 5, 8, 12, 20, 24 hrs), 300 μl sample was withdrawn from receptor compartment for HPLC analysis and immediately replaced with 300 μl of PBS (pH=7.5).
For iontophoresis, a Phoresor II Auto—Iontophoresis Power Device (Model PM 850) Iomed, Inc., provided 0.1, 0.2 and 0.3 MA for 8 hrs of treatment. […] The cathode (AgCl) was inserted into the receptor compartment. After 8 hours, iontophoresis was discontinued and then the passive-only permeation continued for 16 hrs. The sampling method and time points were the same as for passive and chemical enhancer pretreatment experiments.
An 8 hour iontophoresis period is referred to herein as Stage I. A post −8 hour iontophoresis period, passive only permeation period is referred to herein as Stage II.
The cumulative drug amount in the receptor compartment after 8 hrs and 24 hrs was defined as Q8 and Q24 (μg cm^−2), respectively. The enhancement ratio (ER) for flux was calculated as follows:
Franz diffusion cells were used for all in vitro permeation studies using buccal tissue under varying conditions: passive (control), 1 hour enhancer pretreatment, 8 hrs. iontophoresis (0.1, 0.2 and 0.3 mA), and combined treatment of 1 hr. enhancer pretreatment and 8 hrs. iontophoresis at 0.3 mA, and then passive only up to 24 hrs. All permeation studies performed at 37° C. The procedure for passive permeation studies described above was followed.
The concentration of ODAN.HCl in the receptor compartment was analyzed by HPLC. […] A C18 column (150×4.6 mm C18 (2) 100 A Luna 5 μm, Phenomenex) with a guard column was used at 25° C.

[6] = Histological study of buccal tissue (H&E, light microscopy); set-up: species or system porcine; conditions: after passive permeation (FIG. 6); light micrographs 40×
Method: The morphological changes in both untreated and treated buccal tissues were evaluated using light microscopy. Buccal membrane samples were sectioned carefully and fixed in 10% buffered formalin for 1 day at room temperature. […] This was followed by immersing in xylene at least three times, and finally embedding in Tissue-Tek O.C.T. compound under dry ice. […] The stained slices were examined under a Nikon Eclipse E 800 light microscope (Micro Optics, Cedar Knolls, N.J.) at 40×. A Nikon Digital Camera (Model DXM 1200) was used to capture images. Images were processed by SPOT™ Imaging Software, Version 5.0 (Diagnostic Instrument, Inc., Sterling Heights, Mich.).
A histological study was performed to evaluate the integrity of treated and untreated porcine tissues using standard H&E methodology.

[7] = iontophoresis 0.3 mA for 8 h, listed as nicotine hydrogen tartrate, tartrate
[8] = iontophoresis 0.3 mA for 8 h, tartrate
[9] = Control (untreated passive), 8 h (Tables 19-21)
[10] = iontophoresis 0.3 mA for 8 h (Tables 19-21)
[11] = in words, 1 hr. enhancer pretreatment, compared to control
[12] = Stage II after 8 h iontophoresis 0.2 mA

From the text for EpiOral™ tissue: MTS 3-(4,5-dimethylthiazol-2-yl)-5-(3-carboxymethoxyphenyl)-2-(4-sulfophenyl)-2H-tetrazolium, inner salt) assay was used to evaluate enhancer cytotoxicity in buccal tissues. […] The number of surviving cells is directly proportional to the level of the formazan. The color can then be quantified at 490 nm using a Microplate Power Wave X Scanning Spectrophotometer (Bio-TEK Instruments, Inc., Winooski, Vt.).
EpiOral™ tissue (ORL-200) was used, which is a multilayered tissue mainly composed of an organized basal layer and multiple non-cornified layers analogous to native human buccal tissue. A 24-well plate containing ORL-200 (cell culture inserts) was stored in the refrigerator (4° C.) prior to use. […] After this, 100 μl of the reacted MTS solution from each well was pipetted into a marked 96-well microtiter plate for spectrophotometer reading (SPR) at 490 nm using Microplate Power Wave X Scanning Spectrophotometer (Bio-TEK Instruments, Inc., Winooski, Vt.). […] The EpiOral tissue % viability at each of the dosed concentrations was calculated using the following formula: […]
Dose response curve was established using a semi-log scale to plot % viability (linear y axis) vs. the dosing time (log x axis). […] All the SPR were deducted from blank readings for viability and ET-50 value final calculations. […]

## CCCCCCCCCCCCOC(=O)C(C)N(C)C.Cl (stereo not shown) [DDAIP.HCl, dodecyl-2-N,N-dimethylaminopropionate hydrochloride]
EpiOral™ tissue
  effect on viability of EpiOral tissue compared to water: did not reduce the viability
[1]
  enhancement effect on transdermal delivery of DHCl: no enhancement effect
  enhancement effect on transdermal delivery of LHCl: no enhancement effect
  enhancement effect on transdermal delivery of NHT: no enhancement effect

## CN1CCCC1c1cccnc1.O=C(O)C(O)C(O)C(=O)O (stereo not shown) [Nicotine Hydrogen Tartrate, Nicotine hydrogen tartrate]
[2]
  solubility: soluble in water
[1]; Control (untreated passive), 8 h, […] LHCl, 2% NHT or 2% DHCl gel
  Flux: 1.3 ± 1.9 μg/cm^2*h
[1]; Control (untreated passive), 8 h, tartrate
  Q8: 9.9 ± 14.6 μg/cm^2
[1]; iontophoresis 0.1 mA for 8 h
  Flux: 56.1 ± 11.4^b μg/cm^2*h
  Q8: 433.2 ± 85.4^b μg/cm^2
[1]; [7]
  Flux: 138.4 ± 72.3^c μg/cm^2*h
  Q8: 1326.6 ± 186.2^c μg/cm^2
[1]; [8]
  Flux: 138.4 ± 72.3^b μg/cm^2*h
  Q8: 1326.6 ± 186.2^b μg/cm^2
[3]; [9]
  Q8: 6.9 ± 2.6^ μg/cm^2
[3]; Control (untreated passive), 8 h, […] LHCl, 2% NHT or 2% DHCl gel, listed as nicotine hydrogen tartrate, tartrate
  Flux: 0.9 ± 0.4 μg/cm^2*h
[3]; iontophoresis 0.1 mA for 8 h
  Flux: 17.6 ± 6.9^b μg/cm^2*h
[3]; [10]
  Q8: 629.5 ± 276.8^b μg/cm^2
[3]; [7]
  Flux: 81.7 ± 35.9^c μg/cm^2*h
[3]; [8]
  Flux: 81.7 ± 35.9^b μg/cm^2*h

## CCCCCCCCCCCCOC(=O)C(C)N(C)C (stereo not shown) [DDAIP, dodecyl 2-(N,N dimethylamino) propionate]
[4]
  aqueous solubility: low aqueous solubilities
[1]
  enhancement effect on transdermal delivery of DHCl: had enhancement effect
  enhancement effect on transdermal delivery of LHCl: had enhancement effect
  enhancement effect on transdermal delivery of NHT: no enhancement effect
[5]; in words, summary of Example 6
  effectiveness in enhancing ODAN.HCl permeability across porcine buccal tissues: only marginally effective
[3]; [11]
  enhancement effect on transbuccal delivery of DHCl: had enhancement effect
  enhancement effect on transbuccal delivery of LHCl: had enhancement effect

## CS(C)=NC(=O)c1ccc(Br)cc1 [Br-iminosulfurane]
[4]
  aqueous solubility: low aqueous solubilities
[1]
  enhancement effect on transdermal delivery of LHCl: enhanced
  enhancement effect on transdermal delivery of NHT: no enhancement effect
[3]; [11]
  enhancement effect on transbuccal delivery of LHCl: enhanced
  enhancement effect on transbuccal delivery of NHT: no enhancement effect

## CCCCCCCCCCCCN1CCCCCC1=O [Azone, 1-Dodecylazacycloheptan-2-one]
[1]
  enhancement effect on transdermal delivery of NHT: no enhancement effect
[3]; [11]
  enhancement effect on transbuccal delivery of NHT: no enhancement effect

## Cc1nccn1CC1CCc2c(c3ccccc3n2C)C1=O (racemic) [ODAN•HCl, (±) 1,2,3,9-tetrahydro-9-methyl-3-[(2-methyl-1H-imidazol-1-yl)methyl]-4H-carbazol-4-one, monohydrochloride, dihydrate]
[5]; 0.5% ODAN.HCl gel, Stage I, Control (passive)
  Q8: 25.5 ± 5.1 µg/cm²
[5]; 0.5% ODAN.HCl gel, Stage I, iontophoresis 0.1 mA
  Flux: 10.6 ± 4.5^b μg/cm^2/h
[5]; 0.5% ODAN.HCl gel, Stage I, iontophoresis 0.2 mA
  Flux: 16.5 ± 6.5^b μg/cm^2/h
[5]; 0.5% ODAN.HCl gel, Stage I, iontophoresis 0.3 mA
  Flux: 22.8 ± 4.6^b μg/cm^2/h
[5]; Stage I, Control (reference)
  ER: 1
[5]; Stage I, iontophoresis 0.1 mA
  Q8: 83.3 ± 33.5 µg/cm²
[5]; Stage I, iontophoresis 0.1 mA, flux vs control
  ER: 3.3
[5]; Stage I, iontophoresis 0.2 mA
  Q8: 133 ± 50.1 µg/cm²
[5]; Stage I, iontophoresis 0.2 mA, flux vs control
  ER: 5.2
[5]; Stage I, iontophoresis 0.3 mA
  Q8: 190 ± 42.7 µg/cm²
[5]; Stage I, iontophoresis 0.3 mA, flux vs control
  ER: 7.1
[5]; Stage II (8-24 h, passive) after 8 h iontophoresis 0.1 mA
  Flux: 13.7 ± 4.3^b μg/cm^2/h
[5]; Stage II after 8 h iontophoresis 0.1 mA
  Q24: 297 ± 90.1 µg/cm²
[5]; Stage II after 8 h iontophoresis 0.1 mA, flux vs control
  ER: 2.8
[5]; [12]
  Flux: 12.7 ± 5.3^b μg/cm^2/h
  Q24: 337 ± 130 µg/cm²
[5]; Stage II after 8 h iontophoresis 0.2 mA, flux vs control
  ER: 2.6
[5]; Stage II after 8 h iontophoresis 0.3 mA
  Q24: 380 ± 68.1 µg/cm²
[5]; Stage II after 8 h iontophoresis 0.3 mA, flux vs control
  ER: 2.4
[5]; Stage II after 8 h iontophoresis 0.3 mA, listed as ODAN.HCl, monohydrochloride, dihydrate
  Flux: 11.9 μg/cm^2/h
[5]; Stage II after 8 h iontophoresis 0.3 mA, monohydrochloride, dihydrate
  Flux: 11.9 ± 2.3^b μg/cm^2/h
[5]; Stage II, Control (passive)
  Q24: 105 ± 22.8 µg/cm²
[5]; Stage II, Control (reference)
  ER: 1
[6]
  morphology of buccal tissue compared to untreated: no major morphological changes

## CCN(CC)CC(=O)Nc1c(C)cccc1C [Lidocaine HCl, 2-(Diethylamino)-2′,6′-acetoxylidide mono-hydrochloride, monohydrate]
[3]; [9]
  Q8: 345.6 ± 74.3^ μg/cm^2
[3]; Control (untreated passive), 8 h, […] LHCl, 2% NHT or 2% DHCl gel, listed as lidocaine HCl, mono-hydrochloride, monohydrate
  Flux: 44.7 ± 9.6 μg/cm^2*h
[3]; iontophoresis 0.1 mA for 8 h
  Flux: 137.1 ± 13.1^b μg/cm^2*h
[3]; [10]
  Q8: 1910.2 ± 454.7^b μg/cm^2
[3]; iontophoresis 0.3 mA for 8 h, listed as lidocaine HCl, mono-hydrochloride, monohydrate
  Flux: 241.7 ± 60.5^c μg/cm^2*h
[3]; iontophoresis 0.3 mA for 8 h, mono-hydrochloride, monohydrate
  Flux: 241.7 ± 60.5^b μg/cm^2*h

## COc1ccc([C@@H]2Sc3ccccc3N(CCN(C)C)C(=O)[C@@H]2OC(C)=O)cc1 [Diltiazem HCl, 1,5-Benzothiazepin-4(5H) one, 3-(acetyloxy)-5-[2-(dimethylamino)ethyl]-2,3-dihyro-2-(4-methoxyphenyl)-, monohydrochloride, (+)-cis-]
[2]
  solubility: soluble in water, methanol, and chloroform
